Measured values from publication PMC9558907, “Synthesis and pharmacological evaluation of newly detected synthetic cannabinoid receptor agonists AB-4CN-BUTICA, MMB-4CN-BUTINACA, MDMB-4F-BUTICA, MDMB-4F-BUTINACA and their analogs” (Frontiers in Psychiatry, 2022).

What was measured:
[1] = target: T1, human CB1 (Homo sapiens, UniProt P21554); assay: fluorescence-based membrane potential assay (GIRK activation) in AtT20 cells; type: cell-based; set-up: expressed in transfected cells; host or cells: mouse AtT20 FlpIn cells; settings: for hCB1 maximal response at 10 μM (footnote d): highest concentration tested, curve not fitted; for hCB1 Emax ±SEM: normalised to 1 μM CP55,940
[2] = target: T1, human CB1; assay: competitive radioligand binding assay, displacement of [3H]CP55,940, HEK cell membranes; set-up: expressed in transfected cells; host or cells: HEK293 cells, P2 membrane preparation; settings: [3H]CP55,940 1 nM
[3] = target: T2, human CB2 (Homo sapiens, UniProt P34972); assay: fluorescence-based membrane potential assay (GIRK activation) in AtT20 cells; type: cell-based; set-up: expressed in transfected cells; host or cells: mouse AtT20 FlpIn cells; settings: for hCB2 Emax ±SEM: normalised to 1 μM CP55,940
[4] = target: T2, human CB2; assay: competitive radioligand binding assay, displacement of [3H]CP55,940, HEK cell membranes; set-up: expressed in transfected cells; host or cells: HEK293 cells, P2 membrane preparation; settings: [3H]CP55,940 1 nM
[5] = AtT20-hCB1, DNC = did not converge, ND = < 50% change in fluorescence at 10 μM
[6] = hCB1 Ki, value in brackets after pKi
[7] = hCB2 EC50, AtT20-hCB2, value in brackets after pEC50
[8] = hCB2 Ki, value in brackets after pKi
[9] = hCB1 EC50, AtT20-hCB1, value in brackets after pEC50
[10] = hCB1 pKi ±SEM, mean ± SEM of 3 to 6 independent experiments

T2 sequence (P34972 whole entry): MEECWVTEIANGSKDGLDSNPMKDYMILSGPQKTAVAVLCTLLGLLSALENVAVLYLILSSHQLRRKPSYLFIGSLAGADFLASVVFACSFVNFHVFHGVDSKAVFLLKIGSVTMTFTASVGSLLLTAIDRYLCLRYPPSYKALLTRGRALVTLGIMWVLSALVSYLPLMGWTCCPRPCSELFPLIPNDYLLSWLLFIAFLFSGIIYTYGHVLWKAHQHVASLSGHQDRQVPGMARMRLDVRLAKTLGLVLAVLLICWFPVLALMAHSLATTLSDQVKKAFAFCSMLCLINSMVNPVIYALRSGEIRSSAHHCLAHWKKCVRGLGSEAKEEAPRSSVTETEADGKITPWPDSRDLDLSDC
T1 sequence (P21554 whole entry): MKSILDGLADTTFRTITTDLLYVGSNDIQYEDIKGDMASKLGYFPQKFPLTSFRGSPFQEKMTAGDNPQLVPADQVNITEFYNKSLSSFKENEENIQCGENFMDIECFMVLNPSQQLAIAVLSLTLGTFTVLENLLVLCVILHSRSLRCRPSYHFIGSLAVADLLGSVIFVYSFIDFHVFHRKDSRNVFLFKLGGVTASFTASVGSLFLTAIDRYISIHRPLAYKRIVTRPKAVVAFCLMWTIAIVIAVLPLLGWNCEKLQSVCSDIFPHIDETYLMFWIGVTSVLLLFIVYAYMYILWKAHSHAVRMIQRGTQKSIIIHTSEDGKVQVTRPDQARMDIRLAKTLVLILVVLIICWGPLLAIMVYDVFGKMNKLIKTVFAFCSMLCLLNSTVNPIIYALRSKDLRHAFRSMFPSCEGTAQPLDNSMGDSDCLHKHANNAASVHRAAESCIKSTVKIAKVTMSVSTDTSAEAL

| SMILES | hCB1 maximal response at 10 μM (footnote d) ([1]; AtT20-hCB1) | hCB1 pEC50 ±SEM [1, 5] | Ki [2, 6] [µM] | hCB2 Emax ±SEM ([3]; AtT20-hCB2) | EC50 [3, 7] [µM] | melting point [°C] | Ki [4, 8] [µM] | hCB1 Emax ±SEM ([1]; AtT20-hCB1) | EC50 [1, 9] [µM] | hCB1 maximal response at 10 μM (footnote d) ([1]; AtT20-hCB1, listed as APP-4CN-BUT7AICA (16)) | Ki [2, 10] [µM] | hCB2 Emax ±SEM ([3]; AtT20-hCB2, listed as APP-4CN-BUT7AICA (16)) | EC50 ([3]; hCB2 pEC50 ±SEM, AtT20-hCB2) [µM] | EC50 ([1]; hCB1 pEC50 ±SEM, AtT20-hCB1, DNC = did not converge, ND = < 50% change in fluorescence at 10 μM) [µM] | hCB1 maximal response at 10 μM (footnote d) ([1]; AtT20-hCB1, listed as APP-4F-BUTICA (27)) | Ki ([4]; hCB2 pKi ±SEM, mean ± SEM of 3 to 6 independent experiments) [µM] |
| --- | --- | --- | --- | --- | --- | --- | --- | --- | --- | --- | --- | --- | --- | --- | --- | --- |
| CC(C)[C@H](NC(=O)c1cn(CCCCC#N)c2ncccc12)C(N)=O [Compound 14, (S)-N-(1-amino-3-methyl-1-oxobutan-2-yl)-1-(4-cyanobutyl)-1H-pyrrolo[2,3-b]pyridine-3-carboxamide] | 80 ± 3^d % CP55,940 | DNC^b | 2.57 | 87 ± 5 % CP55,940 | 0.39 | 181 to 182 | 3.24 |  |  |  |  |  |  |  |  |  |
| CC(C)(C)[C@H](NC(=O)c1cn(CCCCC#N)c2ncccc12)C(N)=O [Compound 15, (S)-N-(1-amino-3,3-dimethyl-1-oxobutan-2-yl)-1-(4-cyanobutyl)-1H-pyrrolo[2,3-b]pyridine-3-carboxamide] |  |  | 0.155 | 96 ± 1 % CP55,940 | 0.00609 | 93 to 94 | 0.145 | 102 ± 4 % CP55,940 | 0.014 |  |  |  |  |  |  |  |
| N#CCCCCn1cc(C(=O)N[C@@H](Cc2ccccc2)C(N)=O)c2cccnc21 [Compound 16, (S)-N-(1-amino-1-oxo-3-phenylpropan-2-yl)-1-(4-cyanobutyl)-1H-pyrrolo[2,3-b]pyridine-3-carboxamide] | submaximal agonist activity |  |  |  | 0.232 | 182 to 184 | 1.86 |  |  | 25 ± 3^d % CP55,940 | > 10 | 72 ± 3 % CP55,940 | 0.229 |  |  |  |
| COC(=O)[C@@H](NC(=O)c1cn(CCCCC#N)c2ccccc12)C(C)(C)C [Compound 18, methyl (S)-2-(1-(4-cyanobutyl)-1H-indole-3-carboxamido)-3,3-dimethylbutanoate] |  |  | 0.00661 | 101 ± 4 % CP55,940 | 0.00404 | 124 to 127 | 0.00204 | 111 ± 3 % CP55,940 | 0.00268 |  |  |  |  |  |  |  |
| COC(=O)[C@H](Cc1ccccc1)NC(=O)c1cn(CCCCC#N)c2ccccc12 [Compound 19, methyl (1-(4-cyanobutyl)-1H-indole-3-carbonyl)-L-phenylalaninate] |  |  | 0.0851 | 105 ± 3 % CP55,940 | 0.00844 | 144 to 146 | 0.00871 | 109 ± 3 % CP55,940 | 0.0355 |  |  |  |  |  |  |  |
| COC(=O)[C@H](Cc1ccccc1)NC(=O)c1nn(CCCCC#N)c2ccccc12 [Compound 21, methyl (1-(4-cyanobutyl)-1H-indazole-3-carbonyl)-L-phenylalaninate] |  |  | 0.0209 | 100 ± 2 % CP55,940 | 0.00324 | 82.5 to 84.5 | 0.0038 | 115 ± 3 % CP55,940 | 0.00872 |  |  |  |  |  |  |  |
| COC(=O)[C@H](Cc1ccccc1)NC(=O)c1cn(CCCCC#N)c2ncccc12 [Compound 24, methyl (1-(4-cyanobutyl)-1H-pyrrolo[2,3-b]pyridine-3-carbonyl)-L-phenylalaninate] |  |  | 0.38 | 104 ± 2 % CP55,940 | 0.0143 | 102 to 105 | 0.055 | 110 ± 5 % CP55,940 | 0.189 |  |  |  |  | 0.186 |  |  |
| CC(C)[C@H](NC(=O)c1cn(CCCCF)c2ccccc12)C(N)=O [Compound 25, (S)-N-(1-amino-3-methyl-1-oxobutan-2-yl)-1-(4-fluorobutyl)-1H-indole-3-carboxamide] |  |  | 1 | 97 ± 2 % CP55,940 | 0.0235 | 225 to 227 | 0.082 | 108 ± 3 % CP55,940 | 0.0965 |  |  |  |  |  |  |  |
| CC(C)(C)[C@H](NC(=O)c1cn(CCCCF)c2ccccc12)C(N)=O [Compound 26, (S)-N-(1-amino-3,3-dimethyl-1-oxobutan-2-yl)-1-(4-fluorobutyl)-1H-indole-3-carboxamide] |  |  |  | 105 ± 4 % CP55,940 | 0.0441 | 92 to 94 | 0.008 | 110 ± 4 % CP55,940 | 0.0404 |  | 0.0347 |  |  |  |  |  |
| NC(=O)[C@H](Cc1ccccc1)NC(=O)c1cn(CCCCF)c2ccccc12 [Compound 27, (S)-N-(1-amino-1-oxo-3-phenylpropan-2-yl)-1-(4-fluorobutyl)-1H-indole-3-carboxamide] | submaximal agonist activity | DNC^b | 3.2 | 108 ± 8 % CP55,940 | 0.306 | 102 to 104 | 0.17 |  |  |  | 3.16 |  |  |  | 82 ± 4^d % CP55,940 | 0.174 |
| CC(C)[C@H](NC(=O)c1nn(CCCCF)c2ccccc12)C(N)=O [Compound 28, (S)-N-(1-amino-3-methyl-1-oxobutan-2-yl)-1-(4-fluorobutyl)-1H-indazole-3-carboxamide] |  |  |  | 96 ± 1 % CP55,940 | 0.00485 | 188 to 190 | 0.0085 | 107 ± 2 % CP55,940 | 0.00598 |  | 0.132 |  |  |  |  |  |
| CC(C)(C)[C@H](NC(=O)c1nn(CCCCF)c2ccccc12)C(N)=O [Compound 29, (S)-N-(1-amino-3,3-dimethyl-1-oxobutan-2-yl)-1-(4-fluorobutyl)-1H-indazole-3-carboxamide] |  |  | 0.00407 | 103 ± 2 % CP55,940 | 0.00528 | 77 to 79 | 0.00069 | 116± 2 % CP55,940 | 0.00161 |  |  |  |  |  |  |  |
| NC(=O)[C@H](Cc1ccccc1)NC(=O)c1nn(CCCCF)c2ccccc12 [Compound 30, (S)-N-(1-amino-1-oxo-3-phenylpropan-2-yl)-1-(4-fluorobutyl)-1H-indazole-3-carboxamide] |  |  | 1.38 | 101 ± 12 % CP55,940 | 0.00835 | 100 to 103 | 0.0282 | 103 ± 3 % CP55,940 | 0.504 |  |  |  |  |  |  |  |
| CC(C)(C)[C@H](NC(=O)c1cn(CCCCF)c2ncccc12)C(N)=O [Compound 32, (S)-N-(1-amino-3,3-dimethyl-1-oxobutan-2-yl)-1-(4-fluorobutyl)-1H-pyrrolo[2,3-b]pyridine-3-carboxamide] |  |  | 1.3 | 108 ± 2 % CP55,940 | 0.00499 | 95 to 96 | 0.046 | 112 ± 6 % CP55,940 | 0.046 |  | 1.26 |  |  |  |  |  |
